In patent US4293694A, “Pyrido[3,2,1-jk]carbazols” (Otsuka Pharmaceutical Co., Ltd., priority 1979, dated 1981):
Converted amounts (≈) assume the structure as drawn. Where two headings read alike, the source gives them in different places.

Key:
Candida albicans KYU = test: Antimicrobial activity, serial dilution method on agar plate; assay type: cell-based; conditions: read-out: Minimum Inhibitory Concentration (MIC)
Esherichia coli NIHJ = test: as above; assay type: cell-based; conditions: read-out: Minimum Inhibitory Concentration (MIC)
Proteus mirabilis 1287 = test: as above; assay type: cell-based; conditions: read-out: Minimum Inhibitory Concentration (MIC)
Enterbactor cloacae 2 = test: as above; assay type: cell-based; conditions: read-out: Minimum Inhibitory Concentration (MIC)
[1] = tested on: Streptococcus faecalis IFO 12580; test: as above; assay type: cell-based; conditions: Enterococcus faecalis, IFO12580, read-out: Minimum Inhibitory Concentration (MIC)
Acute toxicity = conditions: rat, in vivo, rats, dd strain, 18 to 22 g, fasted 12 hours
Method: Further, the acute toxicity of the compounds of the present invention having the formula (I) was determined by intravenous administration (i.v.) and oral administration (p.o.) in 5 to 6 groups of rats (dd strain; body weight, 18 to 22 g; 10 rats in each group) which had been fasted for 12 hours prior to the test.

Sarcina lutea ATCC 9341 = test: Antimicrobial activity, serial dilution method on agar plate; assay type: cell-based; conditions: Micrococcus luteus, ATCC9341, read-out: Minimum Inhibitory Concentration (MIC)
[2] = tested on: Staphyrococcus aureus Newmann; test: as above; assay type: cell-based; conditions: read-out: Minimum Inhibitory Concentration (MIC)
[3] = tested on: Bacillus subtilis ATCC 6633; test: as above; assay type: cell-based; conditions: ATCC6633, read-out: Minimum Inhibitory Concentration (MIC)
[4] = tested on: Salmonella typhimurium kh; test: as above; assay type: cell-based; conditions: Salmonella enterica, read-out: Minimum Inhibitory Concentration (MIC)
[5] = tested on: Bacillus cereus ATCC 11778; test: as above; assay type: cell-based; conditions: ATCC11778, read-out: Minimum Inhibitory Concentration (MIC)
[6] = tested on: Klebsiella pneumoniae ST-101; test: as above; assay type: cell-based; conditions: ST101, read-out: Minimum Inhibitory Concentration (MIC)
[7] = tested on: Serratia marcescens ATCC 14756; test: as above; assay type: cell-based; conditions: ATCC14756, read-out: Minimum Inhibitory Concentration (MIC)
[8] = tested on: Esherichia coli NIHJ JC-2; test: as above; assay type: cell-based; conditions: read-out: Minimum Inhibitory Concentration (MIC)
[9] = tested on: Pseudomonas aeruginosa ATCC 10145; test: as above; assay type: cell-based; conditions: ATCC10145, read-out: Minimum Inhibitory Concentration (MIC)
[10] = tested on: Enterbactor aerogenes IFO 12979; test: as above; assay type: cell-based; conditions: read-out: Minimum Inhibitory Concentration (MIC)
Bacillus anthracis = test: microbe, parasite or virus in culture; assay type: cell-based; conditions: read-out: Minimum Inhibitory Concentration (MIC)
[11] = tested on: Staphyrococcus aureus FDA 209p; test: Antimicrobial activity, serial dilution method on agar plate; assay type: cell-based; conditions: read-out: Minimum Inhibitory Concentration (MIC)
[12] = tested on: Micrococcus flavus ATCC 10240a; test: as above; assay type: cell-based; conditions: ATCC10240A, read-out: Minimum Inhibitory Concentration (MIC)
Streptomyces viridans = test: as above; assay type: cell-based; conditions: read-out: Minimum Inhibitory Concentration (MIC)
[13] = iv, read-out: LD50 (50% lethal dose), i.v.
[14] = po, read-out: LD50 (50% lethal dose), p.o.

Row | SMILES | MIC (Candida albicans KYU) [µg/mL] | MIC (Esherichia coli NIHJ) [µg/mL] | MIC (Proteus mirabilis 1287) [µg/mL] | MIC (Enterbactor cloacae 2) [µg/mL] | MIC [1] [µg/mL] | LD50 (Acute toxicity; [13]) [mg/kg] | MIC (Sarcina lutea ATCC 9341) [µg/mL] | MIC [2] [µg/mL] | MIC [3] [µg/mL] | MIC [4] [µg/mL] | MIC [5] [µg/mL] | MIC [6] [µg/mL] | MIC [7] [µg/mL] | MIC [8] [µg/mL] | MIC [9] [µg/mL] | MIC [10] [µg/mL] | MIC (Bacillus anthracis) [µg/mL] | MIC [11] [µg/mL] | MIC [12] [µg/mL] | MIC (Streptomyces viridans) [µg/mL] | other results
1 | O=C(O)c1cn2c3c(ccc([N+](=O)[O-])c3c1=O)C1CCCCC12 (stereo not shown) [Compound 6, 3-nitro-7a,8,9,10,11,11a-hexahydro-4-oxo-4H-pyrido[3,2,1-jk]carbazol-5-carboxylic acid] | > 500 | 6.3 (≈ 20 µM) | 12.5 (≈ 39.8 µM) | 6.3 (≈ 20 µM) | > 100 | 110 | 50 (≈ 159 µM) | 12.5 (≈ 39.8 µM) | 3.2 (≈ 10.2 µM) | 12.5 (≈ 39.8 µM) | 12.5 (≈ 39.8 µM) | 6.3 (≈ 20 µM) | 6.3 (≈ 20 µM) | 12.5 (≈ 39.8 µM) | > 100 | 6.3 (≈ 20 µM) | 12.5 (≈ 39.8 µM) | 12.5 (≈ 39.8 µM) | 50 (≈ 159 µM) | > 100 | LD50 (Acute toxicity; [14]): 4000 mg/kg
2 | Nc1ccc2c3c1c(=O)c(C(=O)O)cn3C1CCCCC21 (stereo not shown) [Compound 7, 3-amino-7a,8,9,10,11,11a-hexahydro-4-oxo-4H-pyrido[3,2,1-jk]carbazol-5-carboxylic acid] | > 500 | 25 (≈ 87.9 µM) | 50 (≈ 176 µM) | 12.5 (≈ 44 µM) | > 100 | 115 | > 100 | 50 (≈ 176 µM) | 6.3 (≈ 22.2 µM) | 12.5 (≈ 44 µM) | 50 (≈ 176 µM) | 12.5 (≈ 44 µM) | 12.5 (≈ 44 µM) | 50 (≈ 176 µM) | > 100 | 12.5 (≈ 44 µM) | 12.5 (≈ 44 µM) | 50 (≈ 176 µM) | > 100 | > 100 | LD50 (Acute toxicity; [14]): 4500 mg/kg
3 | CC(=O)Nc1ccc2c3c1c(=O)c(C(=O)O)cn3C1CCCCC21 (stereo not shown) [Compound 8, 3-acetylamino-7a,8,9,10,11,11a-hexahydro-4-oxo-4H-pyrido[3,2,1-jk]carbazol-5-carboxylic acid] | > 500 | 12.5 (≈ 38.3 µM) | 25 (≈ 76.6 µM) | 6.3 (≈ 19.3 µM) | 100 (≈ 306 µM) | 110 | 50 (≈ 153 µM) | 12.5 (≈ 38.3 µM) | 3.2 (≈ 9.81 µM) | 6.3 (≈ 19.3 µM) | 50 (≈ 153 µM) | 6.3 (≈ 19.3 µM) | 3.2 (≈ 9.81 µM) | 12.5 (≈ 38.3 µM) | > 100 | 6.3 (≈ 19.3 µM) | 6.3 (≈ 19.3 µM) | 12.5 (≈ 38.3 µM) | 50 (≈ 153 µM) | 100 (≈ 306 µM) | LD50 (Acute toxicity; [14]): 3500 mg/kg
4 | O=C(OCCBr)c1cn2c3c(cc(F)cc3c1=O)C1CCCCC12 (stereo not drawn) [Compound 9, β-bromoethyl 2-fluoro-7a,8,9,10,11,11a-hexahydro-4-oxo-4H-pyrido[3,2,1-jk]carbazol-5-carboxylate] | > 500 | 25 (≈ 63.4 µM) | 50 (≈ 127 µM) | 12.5 (≈ 31.7 µM) | > 100 | 105 | 100 (≈ 254 µM) | 50 (≈ 127 µM) | 12.5 (≈ 31.7 µM) | 25 (≈ 63.4 µM) | 100 (≈ 254 µM) | 25 (≈ 63.4 µM) | 12.5 (≈ 31.7 µM) | 25 (≈ 63.4 µM) | > 100 | 25 (≈ 63.4 µM) | 50 (≈ 127 µM) | 50 (≈ 127 µM) | 100 (≈ 254 µM) | > 100 | LD50 (Acute toxicity; [14]): 3000 mg/kg
5 | NNC(=O)c1cn2c3c(cc(F)cc3c1=O)C1CCCCC12 (stereo not shown) [Compound 10, 2-Fluoro-7a,8,9,10,11,11a-hexahydro-4-oxo-4H-pyrido[3,2,1-jk]carbazol-5-carbohydrazide] | > 500 | 25 (≈ 83 µM) | 50 (≈ 166 µM) | 12.5 (≈ 41.5 µM) | > 100 | 100 | > 100 | 50 (≈ 166 µM) | 25 (≈ 83 µM) | 25 (≈ 83 µM) | 100 (≈ 332 µM) | 12.5 (≈ 41.5 µM) | 25 (≈ 83 µM) | 25 (≈ 83 µM) | > 100 | 12.5 (≈ 41.5 µM) | 100 (≈ 332 µM) | 50 (≈ 166 µM) | > 100 | > 100 | LD50 (Acute toxicity; [14]): 3500 mg/kg
6 | CCn1cc(C(=O)O)c(=O)c2ccc(C)nc21 [Compound 13, 1-ethyl-1,4-dihydro-7-methyl-4-one-1,8-naphthyridine-3-carboxylic acid, reference compound] | > 500 | 12.5 (≈ 53.8 µM) | 25 (≈ 108 µM) | 12.5 (≈ 53.8 µM) | > 100 |  | > 100 | 50 (≈ 215 µM) | 6.3 (≈ 27.1 µM) | 6.3 (≈ 27.1 µM) | 50 (≈ 215 µM) | 12.5 (≈ 53.8 µM) | 3.2 (≈ 13.8 µM) | 6.3 (≈ 27.1 µM) | > 100 | 6.3 (≈ 27.1 µM) | 12.5 (≈ 53.8 µM) | 50 (≈ 215 µM) | > 100 | > 100 | 
